Key:
5-HT1A receptor = biological target: T1, 5-HT1A receptor (Homo sapiens, UniProt P08908); assay: cAMP-Glo assay with fixed forskolin in +5-HT1A cells (CHO-K1/5-HT1A/Gα15); assay type: cell-based; details: fixed (4 μM) forskolin; for luminescence as dosages of ligand decrease: +5HT1A cell culture, reduced luminescence = increased cAMP; for 5-HT1A receptor modulation (conclusion from cAMP/luminescence trend) / % cAMP levels as dosages of compound decrease: +5HT1A cell cultures
T1 construct: host or cells: CHO-K1 (co-expressing Gα15)
T1 sequence (P08908 1-422): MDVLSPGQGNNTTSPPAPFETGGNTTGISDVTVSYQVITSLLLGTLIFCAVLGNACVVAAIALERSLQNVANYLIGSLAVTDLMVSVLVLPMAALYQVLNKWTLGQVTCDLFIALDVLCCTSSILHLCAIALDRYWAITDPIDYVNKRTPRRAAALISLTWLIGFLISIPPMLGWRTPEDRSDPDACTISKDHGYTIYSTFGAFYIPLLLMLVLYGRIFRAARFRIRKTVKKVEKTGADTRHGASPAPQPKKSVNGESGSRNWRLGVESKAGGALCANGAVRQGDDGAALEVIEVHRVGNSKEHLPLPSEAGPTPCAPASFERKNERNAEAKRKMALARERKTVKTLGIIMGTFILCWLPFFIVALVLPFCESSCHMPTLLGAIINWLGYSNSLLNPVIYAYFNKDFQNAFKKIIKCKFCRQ
Description: (§1) CHO-K1/Gα15 (GenScript, M00257) (−5-HT1A) and CHO-K1/5-HT1A/Gα15 (GenScript, M00330) (+5-HT1A) cells lines were used. Briefly, CHO-K1/Gα15 is a control cell line that constitutively expresses Gα15 which is a promiscuous Gq protein. This control cell line lacks any transgene encoding 5-HT1A receptors, but still responds to forskolin; thus, cAMP response to forskolin should be the same regardless of whether or not 5-HT1A agonists are present. Conversely, CHO-K1/5-HT1A/Gα15 cells stably express 5-HT1A receptor in the CHO-K1 host background. […] In +5-HT1A cells, Gα15 may be recruited in place of Gαi/o, which could theoretically dampen cAMP response (Rojas and Fiedler 2016, Front Cell Neurosci 10: 272). […] In contrast, tryptophan is not known to activate, or modulate in any way, 5-HT1A receptors, and was thus used as a negative control. Cells were maintained in complete growth media as recommended by supplier (GenScript) which is constituted as follows: Ham's F12 Nutrient mix (HAM's F12, GIBCO #11765-047) with 10% fetal bovine serum (FBS) (Thermo Scientific #12483020), 200 μg/ml zeocin (Thermo Scientific #R25005) and/or 100 μg/ml hygromycin (Thermo Scientific #10687010). The cells were cultured in a humidified incubator with 37° C. and 5% CO2. Cells maintenance was carried out as recommended by the cell supplier. Briefly, vials with cells were removed from the liquid nitrogen and thawed quickly in 37° C. water bath. Just before the cells were completely thawed the vial's outside was decontaminated by 70% ethanol spray. The cell suspension was then retrieved from the vial and added to warm (37° C.) complete growth media, and centrifuged at 1,000 rpm for 5 minutes. The supernatant was discarded, and the cell pellet was then resuspended in another 10 ml of complete growth media, and added to the 10 cm cell culture dish (Greiner Bio-One #664160). The media was changed every third day until the cells were about 90% confluent. The ˜90% confluent cells were then split 10:1 for maintenance or used for experiment.
As 5-HT1A activation inhibits cAMP formation, the ability of test molecules to modulate the 5-HT1A receptor response was measured via changes in the levels of cAMP produced due to application of 4 μM forskolin. The change in intracellular cAMP levels due to the treatment of novel molecules was measured using cAMP-Glo Assay kit (Promega # V1501). Briefly, +5-HT1A cells were seeded on 1-6 columns and base −5-HT1A cells were seeded on columns 7-12 of the white walled clear bottom 96-well plate (Corning, #3903). Both cells were seeded at the density of 30,000 cells/well in 100 μl complete growth media and cultured 24 hrs in humidified incubator at 37° C. and 5% CO2. On the experiment day, the media of cells was replaced with serum/antibiotic free culture media. Then the cells were treated for 20 minutes with test molecules dissolved in induction medium (serum/antibiotic free culture media containing 4 μM forskolin, 500 μM IBMX (isobutyl-1-methylxanthine, Sigma-Aldrich, Cat. #17018) and 100 μM (RO 20-1724, Sigma-Aldrich, Cat. #68279)). Forskolin induced cAMP formation whereas IBMX and RO 20-1724 inhibited the degradation of cAMP. PKA was added to the lysate, mixed, and subsequently the substrate of the PKA was added. PKA was activated by cAMP, and the amount of ATP consumed due to PKA phosphorylation directly corresponded to cAMP levels in the lysate. Reduced ATP caused reduced conversion of luciferin to oxyluciferin, conferring diminished luminescence as the result of 5-HT1A activation. Conversely, enhanced luminescence was expected in cases where 5-HT1A receptor modulation—imparted by a test molecule—caused downstream increases in ATP, thus imparting enhanced conversion of luciferin to oxyluciferin.

[1] = system: CHO-K1/Gα15 (−5-HT1A) cells; assay: cAMP-Glo assay with fixed forskolin in −5-HT1A control cells (CHO-K1/Gα15); assay type: cell-based; details: fixed (4 μM) forskolin
Description: as §1
As 5-HT1A activation inhibits cAMP formation, the ability of test molecules to modulate the 5-HT1A receptor response was measured via changes in the levels of cAMP produced due to application of 4 μM forskolin. The change in intracellular cAMP levels due to the treatment of novel molecules was measured using cAMP-Glo Assay kit (Promega # V1501). […] Reduced ATP caused reduced conversion of luciferin to oxyluciferin, conferring diminished luminescence as the result of 5-HT1A activation. Conversely, enhanced luminescence was expected in cases where 5-HT1A receptor modulation—imparted by a test molecule—caused downstream increases in ATP, thus imparting enhanced conversion of luciferin to oxyluciferin.

5-HT2A receptor = biological target: T2, 5-HT2A receptor (Homo sapiens, UniProt P28223); assay: [3H]ketanserin competition binding assay (SPA) at the 5-HT2A receptor; details: fixed (1 nM) [3H]ketanserin, membranes containing 5-HT2A
T2 construct: purchased PerkinElmer ES-313-M400UA
Description: Evaluation of drug binding is an essential step to characterization of all drug-target interactions (Fang 2012, Exp Opin Drug Discov 7:969). The binding affinity of a drug to a target is traditionally viewed as an acceptable surrogate of its in vivo efficacy (Núñez et al., 2012, Drug Disc Today 17: 10). Competition assays, also called displacement or modulation binding assays, are a common approach to measure activity of a ligand at a target receptor (Flanagan 2016, Methods Cell Biol 132: 191). In these assays, standard radioligands acting either as agonists or antagonists are ascribed to specific receptors. […] After incubation, the samples were read on a MicroBeta 2 Microplate Counter (Perkin Elmer). […] Equilibrium binding constants for ketanserin (Kd) were determined from saturation binding curves using the ‘one-site saturation binding analysis’ method of GraphPad PRISM software (Version 9.2.0). […] Ki values were calculated from the competition displacement data using the competitive binding analysis from GraphPad PRISM software. […] Specific binding in counts per minute (cpm) was calculated by subtracting non-specific binding from total binding. Specific binding (pmol/mg) was calculated from pmol of [^3H]ketanserin bound per mg of protein in the assay. The Kd was calculated by fitting the data with the one-site binding model of PRISM software (version 9.2.0).

T2 sequence (P28223 whole entry): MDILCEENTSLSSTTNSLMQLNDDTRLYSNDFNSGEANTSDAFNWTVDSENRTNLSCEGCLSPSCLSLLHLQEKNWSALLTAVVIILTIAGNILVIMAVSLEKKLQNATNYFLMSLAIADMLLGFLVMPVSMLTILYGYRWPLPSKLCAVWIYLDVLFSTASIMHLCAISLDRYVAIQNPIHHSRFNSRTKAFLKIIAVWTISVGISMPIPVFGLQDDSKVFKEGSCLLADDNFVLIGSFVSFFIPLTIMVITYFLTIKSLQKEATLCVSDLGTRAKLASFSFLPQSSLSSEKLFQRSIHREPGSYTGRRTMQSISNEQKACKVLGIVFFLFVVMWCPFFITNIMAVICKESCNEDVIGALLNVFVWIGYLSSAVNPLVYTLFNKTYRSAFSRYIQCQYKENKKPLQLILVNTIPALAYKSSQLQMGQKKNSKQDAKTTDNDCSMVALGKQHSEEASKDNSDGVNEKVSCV

| SMILES | luminescence as dosages of ligand decrease (5-HT1A receptor) | 5-HT1A receptor modulation (conclusion from cAMP/luminescence trend) (5-HT1A receptor) | % cAMP levels as dosages of compound decrease (5-HT1A receptor) | trend of % cAMP levels with decreasing compound in −5HT1A cell cultures [1] | competition binding curve at the 5-HT2A receptor (5-HT2A receptor) |
| --- | --- | --- | --- | --- | --- |
| CN(C)CCc1c[nH]c2ccccc12 [DMT] | reduced luminescence | 5-HT1A activity |  |  |  |
| CCN(CC)CCc1c[nH]c2c(C=O)ccc(O)c12 [compound (VIII), N,N-diethyl-7-formyl psilocybin derivative] |  | 5-HT1A modulation activity | increased % cAMP levels | not observed |  |
| COc1ccc(C=O)c2[nH]cc(CCN)c12 [compound (X), 4-O-methyl-7-formyl psilocybin derivative] |  | modulate 5-HT1A response | decreased % cAMP levels | not observed |  |
| CCCCN(CCCC)CCc1c(C=O)[nH]c2cccc(OC)c12 [compound (XII)] |  | 5-HT1A modulation activity | decreased % cAMP levels | not observed |  |
| CN(C)CCc1c[nH]c2cccc(O)c12 [psilocin] |  |  |  |  | binding |
| NCCc1c[nH]c2ccc(O)cc12 [serotonin] |  | 5-HT1A binding activity | increased % cAMP levels | not observed |  |
| N[C@@H](Cc1c[nH]c2ccccc12)C(=O)O [tryptophan] | no trend in luminescence | lack of 5-HT1A modulation |  |  | no binding |

Reference: patent US11845727B2, “Aldehyde and ketone derivatives of psilocybin and methods of using” (Enveric B[…] Inc., priority 2020, dated 2023)
